According to EP0314302A2, “Herbicidal o-carbomethoxy-sulfonylureas” (E.I. DU PONT DE NEMOURS AND COMPANY, priority 1987, dated 1989):

Experiments:
[1] = test system: Lalang; assay: Test 4 plantation crop weeds, postemergence; type: in vivo, Imparata cylindrica; details: Table 8, scale 0-100
Excerpt: (§1) The object of this test was to evaluate the efficacy of the compound of this invention on weeds that infest some plantation crops at different growth stages of the weeds. Asystasia intrusa, Mikania cordata, goldenrod Solidago spp, Boston fern Nephrolepis exalata, and lalang Imparata cylindrica were planted in 15-cm plastic pots. Plants were sprayed postemergence with Compound I in a non-phytotoxic solvent. The Asystasia plants ranged in growth from 4 leaves to 9 leaves and very branched, Mikania had 6 leaves to vining, the goldenrod was branching and the Boston fern was growing vigorously. The degree of weed control was visually rated 20 to 24 days after treatment (DAT). Control ratings are based on the scale of 0 to 100 where 0 = no effect, 20 = minimal control and 100 = complete control. Variations in the results of the tests could be due to the fact that the tests were run at different times of the year or due to the stage of growth of the weeds.

[2] = test system: Narrowleaf panicum; assay: Test 11 citrus pots, postemergence to the weeds; type: in vivo, Panicum maximum; details: Postemergence 32 g/ha, 0.25% X-77 surfactant, scale 0-100
Protocol: (§2) Budded citrus seedlings were planted in 30-liter plastic pots which were also seeded with sandbur, guineagrass, narrowleaf panicum, common ragweed, yellow nutsedge, purple nutsedge and bindweed. Compound I was applied preemergence and postemergence to the weeds. Treatments were sprayed to simulate the trunk-to-trunk herbicide application method used in some citrus groves. The compound was also applied postemergence to weeds grown in windowsill flats. The flats were filled with planting medium and seeded with morningglory (Ipomoea spp.). purple nutsedge (Cyperus rotundus), pigweed (Amaranthus spp.), bindweed (Convolvulus spp.), narrowleaf panicum (Panicum maximum), common ragweed (Ambrosia artemisiifolia), sandbur (Cenchrus echinatus), itchgrass (Rottboellia exaltata), johnsongrass (Sorghum halepense), guineagrass (Panicum maximum), smooth crabgrass (Digitaria ischaemum), broadleaf signalgrass (Brachiaria platyphylla), bermudagrass (Cynodon dactylon), goosegrass (Eleusine indica), large crabgrass (Digitaria sanguinalis) and yellow nutsedge (Cyperus esculentus).
(§3) The compound was formulated and sprayed with 0.25% X-77 surfactant in water. Plants were visually rated 21 and 29 days after treatment and compared with appropriate controls. Injury ratings were based on the scale of 0 to 100, where 0 indicates no effect, 20 indicates minimum effect and 100 indicates complete control. […]

[3] = test system: Guineagrass; assay: Test 11 citrus pots, postemergence to the weeds; type: in vivo, Panicum maximum; details: Postemergence 32 g/ha, 0.25% X-77 surfactant, scale 0-100
Protocol: as §2, §3

[4] = test system: Russian thistle; assay: Test 7 postemergence; type: in vivo, Salsola spp; details: scale 0-100
Protocol: (§4) Individual 11.4-cm plastic pots filled with planting medium were seeded with rape, wild radish (Raphanus raphanistruna). tansy mustard (Descurainia pinnata), ball mustard (Neslia paniculata), black mustard (Brassica nigra), yellow mustard, brown mustard, lentils, safflower, flax, sunflower, peanut, vetch, alfalfa, field bean, pea, violet (Viola spp), Kochia (Kochia spp), Russian thistle (Salsola spp), Matricaria spp, groundsel (Senecio spp), shepherdspurse (Capsella bursa-pastoris), nightshade (Solanum spp), sowthistle (Sonchus spp), sugar beet, wheat, "Bonanza" barley and "Morex" barley, Kentucky bluegrass (Poa pratensis), red clover (Trifolium pratense), dandelion (Taraxacum spp) and buckhorn plantain (Plantago lanceolata).
(§5) Plants were treated postemergence with the compound formulated with a non-phytotoxic carrier. Plants were visually rated 18 days after treatment (DAT). Response ratings were based on the scale of 0 to 100 where 0 = no effect, 20 = minimal injury and 100 = complete control.

[5] = test system: Smooth crabgrass; assay: Test 11 windowsill flats, postemergence; type: in vivo, Digitaria ischaemum; details: Postemergence 32 g/ha, 0.25% X-77 surfactant, scale 0-100
Protocol: as §2, §3

[6] = test system: Narrowleaf panicum; assay: Test 11 citrus pots, preemergence to the weeds; type: in vivo, Panicum maximum; details: Preemergence 32 g/ha; 0.25% X-77 surfactant; scale 0-100
Protocol: as §2, §3

[7] = test system: Guineagrass; assay: Test 11 citrus pots, preemergence to the weeds; type: in vivo, Panicum maximum; details: Preemergence 32 g/ha; 0.25% X-77 surfactant; scale 0-100
Protocol: as §2, §3

[8] = test system: Bahia grass; assay: Test 9 postemergence; type: in vivo, bahiagrass; details: 16 g/ha, scale 0-100
Protocol: (§6) Plastic windowsill pots containing planting medium were seeded with bahiagrass, bindweed (Convolvulus spp), guinea grass (Panicum maximum), large crabgrass (Digitaria sanguinalis) and pigweed (Amaranthus spp). Individual 15-cm plastic pots contained sandbur (Cenchrus echinatus), Mikania cordata, Boston fern (Nephrolepis exalata), quackgrass (Agropyron repens), elephantgrass (Pennisetum purpureum) and sowthistle (Sonchus spp) plants.
(§7) Plants were treated postemergence with Compound I formulated in a non-phytotoxic solvent. Plants were visually rated 22 days after treatment (DAT). Injury and weed control ratings were based on the scale of 0 to 100 where 0 = no effect, 20 = minimal control and 100 = complete control.

[9] = test system: Sowthistle; assay: Test 9 postemergence; type: in vivo, Sonchus spp; details: scale 0-100
Protocol: as §6, §7

[10] = test system: Goldenrod; assay: Test 4 plantation crop weeds, postemergence; type: in vivo, Solidago spp; details: Table 6, profusely branching, scale 0-100
Excerpt: as §1

[11] = test system: Sandbur; assay: Test 11 windowsill flats, postemergence; type: in vivo, Cenchrus echinatus; details: Postemergence 32 g/ha, 0.25% X-77 surfactant, scale 0-100
Protocol: as §2, §3

[12] = test system: Bindweed; assay: Test 9 postemergence; type: in vivo, Convolvulus spp; details: 16 g/ha, scale 0-100
Protocol: as §6, §7

[13] = test system: Guinea Grass; assay: Test 3 postemergence weed control; type: in vivo, Panicum maximum; details: 32 g/ha, scale 0-100
Protocol: Seeds of crabgrass (Digitaria spp), guinea grass (Panicum maximum) and narrowleaf panicum (P. maximum) were planted in 15-cm plastic pots. The weeds were treated postemergence with compound I, formulated in a non-phytotoxic solvent, when the plants had 3 or more leaves and had tillered. The degree of weed control was visually rated 17 days after compound application (DAT). Control ratings were based on a scale of 0 to 100 where 0 = no effect, 20 = minimal control and 100 = complete control.

[14] = test system: Citrus; assay: Test 11 citrus pots, postemergence to the weeds; type: in vivo; details: Postemergence 32 g/ha, 0.25% X-77 surfactant, scale 0-100
Protocol: as §2, §3

[15] = test system: Wild mustard; assay: Test 7 postemergence; type: in vivo; details: scale 0-100
[16] = test system: Boston fern; assay: Test 9 postemergence; type: in vivo, Nephrolepis exalata; details: scale 0-100
Protocol: as §6, §7

[17] = test system: Citrus; assay: Test 11 citrus pots, preemergence to the weeds; type: in vivo; details: Preemergence 32 g/ha; 0.25% X-77 surfactant; scale 0-100
Protocol: as §2, §3

[18] = test system: Kochia; assay: Test 7 postemergence; type: in vivo, Kochia spp; details: scale 0-100
Protocol: as §4, §5

[19] = test system: Purple nutsedge; assay: Test 11 windowsill flats, postemergence; type: in vivo, Cyperus rotundus; details: Postemergence 32 g/ha, 0.25% X-77 surfactant, scale 0-100
Protocol: as §2, §3

COC(=O)c1cccnc1S(=O)(=O)NC(=O)Nc1nc(OC)cc(OC)n1 [Compound I, 2-[[(4,6-dimethoxypyrimidin-2-yl)aminocarbonyl]aminosulfonyl]-3-pyridinecarboxylic acid, methyl ester] was tested, and the “Control Rating 22 DAT” value ([1]; 16 g/ha) was 20, the “Control Rating 22 DAT” value ([1]; 32 g/ha) was 20 and the “Control Rating 22 DAT” value ([1]; 64 g/ha) was 40. The Injury ratings [2] was 90, the Injury ratings [3] was 100 and the “Plant Injury Rating 18 DAT” value ([4]; 16 g/ha) was 100. For the same compound, the “Plant Injury Rating 18 DAT” value ([4]; 32 g/ha) was 100, the Injury ratings [5] was 100 and the Injury ratings [6] was 80. The Injury ratings [7] was 100, the “Plant Injury Rating 22 DAT” value [8] was 40 and the “Plant Injury Rating 22 DAT” value ([9]; 8 g/ha) was 60. For the same compound, the “Plant Injury Rating 22 DAT” value ([9]; 16 g/ha) was 70, the “Plant Injury Rating 22 DAT” value ([9]; 32 g/ha) was 100 and the “Control Rating 20 DAT” value ([10]; 16 g/ha) was 30. For the same compound, the “Control Rating 20 DAT” value ([10]; 32 g/ha) was 30, the Injury ratings [11] was 100 and the “Plant Injury Rating 22 DAT” value [12] was 70. The “Control Rating 17 DAT” value [13] was 70, the Injury ratings [14] was 0 and the “Plant Injury Rating 18 DAT” value ([15]; 16 g/ha) was 100. For the same compound, the “Plant Injury Rating 18 DAT” value ([15]; 32 g/ha) was 100, the “Plant Injury Rating 22 DAT” value ([16]; 8 g/ha) was 40 and the “Plant Injury Rating 22 DAT” value ([16]; 16 g/ha) was 50. The “Plant Injury Rating 22 DAT” value ([16]; 32 g/ha) was 80, the Injury ratings [17] was 0 and the “Plant Injury Rating 18 DAT” value ([18]; 16 g/ha) was 100. For the same compound, the “Plant Injury Rating 18 DAT” value ([18]; 32 g/ha) was 100 and the Injury ratings [19] was 100.
